These results are taken from patent publication US5506213A, “Adminstration of 2'-halo-2'-deoxy adenosine to treat inflammatory bowel disease” (priority 1994, dated 1996).

In data set [1] the test system is antigen-induced arthritis. The data set is described as follows: Antigen-induced arthritis in rabbits. The data set is classed as in vivo. To be noted: CdA 1 mg/kg, tepoxalin 25 mg/kg, naproxen 5 mg/kg. As for the experimental part: Antigen-induced arthritis in rabbits is an animal model of rheumatoid arthritis. In this model, the rabbits are sensitized to an antigen such as ovalbumin or methylated bovine serum albumin in an adjuvant. Several weeks later, the same antigen is injected directly into the joints of the animal. […] Pettipher et al., Br. J. Exp. Path., 69:113-122 (1988).
Rabbits with antigen-induced arthritis were treated with CdA (1 mg/kg), tepoxalin (25 mg/kg) or naproxen (5 mg/kg).

A further data set concerns DHL9, wild type. The data set is described as follows: Direct comparative cytotoxicity assay (Table II), DHL9 wild type. The format is cell-based, human. To be noted: Homo sapiens, 120 h, read-out: ID50: concentration that produced 50 percent reduction in all numbers after five days. The text has this:
(§1) The two compounds, CdA and CAFdA, were also compared for in vitro activity against another group of human cell lines in a direct comparative assay.
(§2) ^1 Concentration that produced 50 percent reduction in all numbers
(§3) ^2 CEM cells are T lymphoblasts; DHL9 cells are lymphoblasts.

Data set [2] deals with 2 week old cultured monocytes (differentiated macrophages). The data set is described as follows: In vitro cytotoxicity toward 2 week old cultured monocytes. The format is cell-based, human.
A further data set has as its system neopterin. The data set is described as follows: Plasma neopterin levels in a rheumatoid arthritis patient treated with CdA. The data set is classed as in vivo, human. The method, then: Plasma neopterin levels were measured in a patient with rheumatoid arthritis. Neopterin is released from monocytes and macrophages activated in an immune response. Huber et al., J. Exp. Med., 160:310-316 (1984). Likewise, high levels of neopterin are associated with clinical activity in patients with rheumatoid arthritis. Clinical activity was rated by the following criteria: duration of morning stiffness, range of motion, subjective pain score, measurement of grip strength, synovial thickening, and number of inflamed joints. Reibnegger et al., Arthritis Rheum., 29:1063-1070 (1986). The levels of neopterin in patients with rheumatoid arthritis are proportional to both clinical activity and the levels of activated monocytes and macrophages in these patients.
In this study, a patient with rheumatoid arthritis received CdA by a weekly, four hour intravenous infusion at a dosage of 0.125 to 0.15 mg/kg body weight for an approximately three month course of therapy. Plasma neopterin levels were measured throughout this treatment regime.

Data set [3] deals with CEM, Increased 5'-nucleoside. The data set is described as follows: Direct comparative cytotoxicity assay (Table II), CEM increased 5'-nucleoside. The data set is classed as cell-based, human. To be noted: Homo sapiens, 120 h, read-out: ID50: concentration that produced 50 percent reduction in all numbers after five days.
Text: as §1, §2, §3

For a further data set, the system named is interleukin-1β (IL-1β). The data set is described as follows: Plasma IL-1beta in a rheumatoid arthritis patient, ELISA. The data set is classed as in vivo, human. To be noted: each last infusion day compared to pretreatment values; one patient; preliminary. The text has this:
Preliminary studies have also measured the concentration of interleukin-1β (IL-1β) in cryopreserved plasma samples from one of the rheumatoid arthritis patients. IL-1β is a lymphokine released by antigen-stimulated macrophages that promotes the formation of interleukin-2 in antigen-activated cytotoxic T cells. IL-2 promotes mitosis in activated cytotoxic T cells.
This patient received CdA, as before, in four treatments over a time period of almost 100 days. Each treatment was by 5-day continuous infusion.
IL-1β concentrations were measured using a commercially available ELISA kit (Cistron).

Data set [4] relates to delayed-type hypersensitivity (DTH) response. The data set is described as follows: Delayed-type hypersensitivity to ovalbumin in guinea pigs, oral and intraperitoneal treatment. The data set is classed as in vivo, guinea pig. The following applies: dexamethasone 5 mg/kg, CdA or CAFdA 1 mg/kg, 24 and 48 hours, p<0.01. As for the experimental part: Delayed-type hypersensitivity (DTH) is a cell-mediated immune response that typically takes longer than 12 hours to develop. In the guinea pig, a DTH reaction to an antigen can be established by first immunizing the animal with the antigen in an adjuvant such as Freund's complete adjuvant. Subsequent intradermal injection of the antigen causes no change for at least 10 hours, after which there is a gradual increase in erythema and swelling in response to antigen injection. This response peaks about at about 24 hours after challenge, then gradually subsides.
Histologically, the inflammatory response is characterized by intense inundation of the site with mononuclear cells, of which about half are lymphocytes and the other half monocytes. DTH is therefore an indicator of a monocyte-mediated immune reaction.
In one study, guinea pigs were sensitized to ovalbumin in adjuvant. The animals were then treated either orally or intraperitoneally with saline (control), dexamethasone (5 mg/kg), CdA (1 mg/kg) or CAFdA (1 mg/kg). The animals were then injected with ovalbumin intradermally to elicit the DTH response. The mean area of the swelling size was measured for each animal (nine or ten animals were treated for each protocol).

The next data set deals with IL-6. The data set is described as follows: Spontaneous IL-6 secretion by cultured monocytes, B9.9 hybridoma bioassay. The format is cell-based, human. As for the experimental part:
FIG. 6 is a graph that illustrates the effects of relatively low doses of CdA used to contact monocytes for a 72 hour time period. Monocyte release of interleukin-6 (IL-6; closed diamonds) and phagocytosis of antibody-coated red blood cells (RBC; closed squares) were examined, as was the viability of the cultured monocytes (open squares). Effects are expressed as a percentage of control values versus the CdA concentration in nanomoles (nM).
The ability of dialyzed culture supernatants to promote proliferation of B9.9 hybridoma cells is a measure of IL-6 activity (Helle et al. (1988) Eur. J. Immunol., 18:1535-1540). Monocytes spontaneously secrete IL-6 upon adherence to plastic during short-term in vitro culture (Guerne et al. (1989) J. Clin. Invest., 83:585-592). Monocytes cultured in autologous plasma 20 percent for three days secreted approximately 18 U per ml of IL-6, as determined by the bioassay standard curve using rIL-6.
The spontaneous secretion, of IL-6 by cultured monocytes was measured by the hybridoma growth factor bioassay as described by Guerne et al. (1989) J. Clin. Invest., 83:585-592. In this assay, the proliferation of a B9.9 murine hybridoma subclone is dependent on the presence of IL-6. […]

Another data set deals with monocytes. The data set is described as follows: Direct comparative cytotoxicity assay (Table II), monocytes. The data set is classed as cell-based, human. To be noted: Homo sapiens, Monocyte, 120 h, read-out: ID50: concentration that produced 50 percent reduction in all numbers after five days.
Text: as §1, §2

The test system of data set [5] is intact human cells or cell extracts. The following applies: cited from earlier work.

Structures are written as SMILES.

For `Nc1nc(Cl)nc2c1ncn2[C@H]1C[C@H](O)[C@@H](CO)O1` [CdA, 2-chloro-9,1'-beta-D-2'-deoxyribosyladenine], the “pathological examination of joints compared to untreated controls” value in data set [1] is given as “milder inflammatory response coupled with much less tissue damage”. The IC50 in the data set with DHL9, wild type was 80 nM; in [2] (Homo sapiens, Monocyte, 336 h, read-out: CdA concentration at which 50 percent of 2 week old cultured monocytes were killed) it was greater than 250 nM; in [3] it was 60 nM; in the data set on monocytes, 22 nM. Besides, the “increase in resistance of 2 week old cultured versus freshly isolated monocytes” value in [2] (human, monocytes) was “over 12.5 times”. The plasma neopterin result with neopterin (by about day 84 of therapy) is reported as “about 18 nM”; in the data set with neopterin (days 14 through 70 after the first administration), “about 30 nM”; in the data set on neopterin (initial value, weekly four hour i.v. infusion 0.125 to 0.15 mg/kg), “about 60 nM”; in the data set with neopterin (within the first seven days of therapy), “about 25 nM”. In addition, the “plasma IL-1β level” value in the data set on interleukin-1β (IL-1β) was “significantly lower”. Further, the “swelling after ovalbumin challenge compared to saline control” value in data set [4] (intraperitoneal) is reported as “significant inhibition of swelling”; in data set [4] (oral), “ineffective”. In addition, the “supernatant IL-6” value in the data set on IL-6 (cytotoxic concentrations of CdA) is given as “high levels of IL-6”. Besides, the “spontaneous secretion of IL-6 into the culture supernatant” value with IL-6 (sub-toxic concentrations of CdA, three days) is listed as “inhibited the spontaneous secretion of IL-6”. Further, in data set [5] (T lymphocytes), the phosphorylation entry is “phosphorylated efficiently”. Further, the catabolism entry in [5] (intact human cells or cell extracts) is reported as “not catabolized significantly”.
